Measured values taken from ChEMBL document CHEMBL4507279, “Data for DCP probe BI-9627” (2021).

Assays:
[1] = test system: Hepatocyte growth factor receptor (Homo sapiens), P08581 [Y1235D]; settings: Compound concentration 1000.0 nM
[2] = molecular target: Serine/threonine-protein kinase PknB (Mycobacterium tuberculosis) (UniProt P9WI81); settings: Compound concentration 1000.0 nM
[3] = molecular target: Serine/threonine-protein kinase pim-3 (Homo sapiens) (UniProt Q86V86); settings: Compound concentration 1000.0 nM
[4] = test system: Mast/stem cell growth factor receptor Kit (Homo sapiens), P10721 [A829P]; settings: Compound concentration 1000.0 nM
[5] = molecular target: Ankyrin repeat and protein kinase domain-containing protein 1 (Homo sapiens) (UniProt Q8NFD2); settings: Compound concentration 1000.0 nM
Sequence of Ankyrin repeat and protein kinase domain-containing protein 1 (Homo sapiens) (Q8NFD2 whole entry, the tested form may be a part): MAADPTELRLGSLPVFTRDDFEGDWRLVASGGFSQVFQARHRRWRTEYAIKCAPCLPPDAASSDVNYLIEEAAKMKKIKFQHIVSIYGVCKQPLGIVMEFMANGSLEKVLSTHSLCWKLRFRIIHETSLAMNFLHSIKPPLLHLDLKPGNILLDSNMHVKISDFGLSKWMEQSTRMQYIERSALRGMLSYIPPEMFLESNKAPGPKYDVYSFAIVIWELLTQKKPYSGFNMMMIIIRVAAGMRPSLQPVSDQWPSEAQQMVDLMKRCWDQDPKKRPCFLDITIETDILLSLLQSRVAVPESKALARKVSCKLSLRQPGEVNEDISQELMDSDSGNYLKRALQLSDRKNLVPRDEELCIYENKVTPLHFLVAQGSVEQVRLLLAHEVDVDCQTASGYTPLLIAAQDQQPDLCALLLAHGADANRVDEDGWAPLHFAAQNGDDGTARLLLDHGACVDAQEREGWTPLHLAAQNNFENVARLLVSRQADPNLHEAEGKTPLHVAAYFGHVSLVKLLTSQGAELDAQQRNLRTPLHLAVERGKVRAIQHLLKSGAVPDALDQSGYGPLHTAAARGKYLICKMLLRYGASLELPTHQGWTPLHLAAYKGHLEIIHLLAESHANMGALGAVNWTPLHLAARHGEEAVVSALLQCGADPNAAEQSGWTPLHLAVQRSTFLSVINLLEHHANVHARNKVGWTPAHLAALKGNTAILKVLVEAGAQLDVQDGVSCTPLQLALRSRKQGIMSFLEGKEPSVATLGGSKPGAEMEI

[6] = molecular target: Dual specificity protein kinase CLK2 (Homo sapiens) (UniProt P49760); settings: Compound concentration 1000.0 nM
[7] = molecular target: STE20/SPS1-related proline-alanine-rich protein kinase (Homo sapiens) (UniProt Q9UEW8); settings: Compound concentration 1000.0 nM
[8] = molecular target: Alpha-2C adrenergic receptor (Homo sapiens) (UniProt P18825); settings: Compound concentration 10.0 uM
Sequence of Alpha-2C adrenergic receptor (Homo sapiens) (P18825 whole entry): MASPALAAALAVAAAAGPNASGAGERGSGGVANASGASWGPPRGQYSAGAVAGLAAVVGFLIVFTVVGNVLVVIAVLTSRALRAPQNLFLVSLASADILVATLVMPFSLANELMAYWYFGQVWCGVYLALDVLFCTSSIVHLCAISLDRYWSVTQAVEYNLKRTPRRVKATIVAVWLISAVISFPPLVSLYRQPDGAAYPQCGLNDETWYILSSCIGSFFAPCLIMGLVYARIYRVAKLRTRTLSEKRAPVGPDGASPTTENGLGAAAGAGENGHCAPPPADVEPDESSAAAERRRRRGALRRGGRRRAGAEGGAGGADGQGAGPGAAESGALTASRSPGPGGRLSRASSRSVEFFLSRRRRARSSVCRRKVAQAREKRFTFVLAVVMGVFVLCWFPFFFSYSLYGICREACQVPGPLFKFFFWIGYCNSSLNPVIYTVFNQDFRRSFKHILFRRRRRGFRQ

[9] = molecular target: TGF-beta receptor type-1 (Homo sapiens) (UniProt P36897); settings: Compound concentration 1000.0 nM
[10] = molecular target: Fibroblast growth factor receptor 1 (Homo sapiens) (UniProt P11362); settings: Compound concentration 1000.0 nM
Sequence of Fibroblast growth factor receptor 1 (Homo sapiens) (P11362 22-822 limits assumed): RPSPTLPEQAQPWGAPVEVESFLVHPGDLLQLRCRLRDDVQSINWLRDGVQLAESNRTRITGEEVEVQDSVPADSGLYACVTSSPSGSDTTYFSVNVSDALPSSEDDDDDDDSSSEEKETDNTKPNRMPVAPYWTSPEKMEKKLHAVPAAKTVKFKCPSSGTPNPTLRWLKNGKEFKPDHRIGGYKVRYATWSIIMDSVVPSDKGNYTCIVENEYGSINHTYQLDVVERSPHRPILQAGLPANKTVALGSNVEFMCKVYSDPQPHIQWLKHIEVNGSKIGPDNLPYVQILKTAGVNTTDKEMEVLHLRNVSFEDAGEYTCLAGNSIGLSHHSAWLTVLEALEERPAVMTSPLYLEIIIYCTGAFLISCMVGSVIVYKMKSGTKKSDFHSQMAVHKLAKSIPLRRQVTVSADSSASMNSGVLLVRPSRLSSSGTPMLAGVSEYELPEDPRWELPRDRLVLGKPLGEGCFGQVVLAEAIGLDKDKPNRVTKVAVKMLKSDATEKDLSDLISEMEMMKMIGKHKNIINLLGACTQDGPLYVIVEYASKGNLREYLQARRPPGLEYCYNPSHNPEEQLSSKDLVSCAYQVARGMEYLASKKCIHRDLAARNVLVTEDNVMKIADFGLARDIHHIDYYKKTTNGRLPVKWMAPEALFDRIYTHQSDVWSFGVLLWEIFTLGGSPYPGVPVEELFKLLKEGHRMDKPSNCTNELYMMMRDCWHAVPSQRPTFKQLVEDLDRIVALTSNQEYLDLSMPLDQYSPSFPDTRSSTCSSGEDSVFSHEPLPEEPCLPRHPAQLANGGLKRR

[11] = molecular target: Receptor-type tyrosine-protein kinase FLT3 (Homo sapiens) (UniProt P36888); settings: Compound concentration 1000.0 nM
[12] = molecular target: Epidermal growth factor receptor (Homo sapiens) (UniProt P00533); settings: Compound concentration 1000.0 nM
[13] = test system: Serine/threonine-protein kinase B-raf (Homo sapiens), P15056 [V600E]; settings: Compound concentration 1000.0 nM
Sequence of Serine/threonine-protein kinase B-raf (Homo sapiens), P15056 [V600E] (P15056 whole entry V600E): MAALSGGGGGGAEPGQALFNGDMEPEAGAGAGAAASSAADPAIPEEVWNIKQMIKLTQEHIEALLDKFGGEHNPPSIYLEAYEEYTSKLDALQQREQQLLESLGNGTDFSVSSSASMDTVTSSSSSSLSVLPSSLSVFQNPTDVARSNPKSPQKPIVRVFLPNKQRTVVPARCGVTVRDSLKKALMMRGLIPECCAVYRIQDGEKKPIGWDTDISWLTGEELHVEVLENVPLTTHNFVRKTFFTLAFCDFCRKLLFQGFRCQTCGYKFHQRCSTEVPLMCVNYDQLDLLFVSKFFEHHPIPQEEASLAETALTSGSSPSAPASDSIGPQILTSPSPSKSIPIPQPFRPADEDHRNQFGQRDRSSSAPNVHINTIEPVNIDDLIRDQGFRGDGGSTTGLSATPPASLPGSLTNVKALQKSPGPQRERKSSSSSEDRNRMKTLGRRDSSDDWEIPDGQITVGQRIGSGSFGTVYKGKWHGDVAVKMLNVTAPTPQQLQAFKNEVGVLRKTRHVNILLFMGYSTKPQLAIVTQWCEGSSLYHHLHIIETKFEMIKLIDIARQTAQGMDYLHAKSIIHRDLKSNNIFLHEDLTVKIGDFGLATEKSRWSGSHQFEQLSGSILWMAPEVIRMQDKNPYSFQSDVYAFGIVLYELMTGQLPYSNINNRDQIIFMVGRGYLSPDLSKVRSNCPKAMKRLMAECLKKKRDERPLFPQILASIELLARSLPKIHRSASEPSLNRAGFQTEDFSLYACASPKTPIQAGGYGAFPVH

[14] = molecular target: Myosin light chain kinase 2, skeletal/cardiac muscle (Homo sapiens) (UniProt Q9H1R3); settings: Compound concentration 1000.0 nM
[15] = molecular target: Casein kinase I isoform alpha-like (Homo sapiens) (UniProt Q8N752); settings: Compound concentration 1000.0 nM
[16] = molecular target: Leucine-rich repeat serine/threonine-protein kinase 2 (Homo sapiens) (UniProt Q5S007); settings: Compound concentration 1000.0 nM
[17] = molecular target: Non-receptor tyrosine-protein kinase TYK2 (Homo sapiens) (UniProt P29597); settings: Compound concentration 1000.0 nM
[18] = test system: Phosphatidylinositol 4,5-bisphosphate 3-kinase catalytic subunit alpha isoform (Homo sapiens), P42336 [Q546K]; settings: Compound concentration 1000.0 nM
[19] = molecular target: Serine/threonine-protein kinase BRSK1 (Homo sapiens) (UniProt Q8TDC3); settings: Compound concentration 1000.0 nM
Sequence of Serine/threonine-protein kinase BRSK1 (Homo sapiens) (Q8TDC3 whole entry): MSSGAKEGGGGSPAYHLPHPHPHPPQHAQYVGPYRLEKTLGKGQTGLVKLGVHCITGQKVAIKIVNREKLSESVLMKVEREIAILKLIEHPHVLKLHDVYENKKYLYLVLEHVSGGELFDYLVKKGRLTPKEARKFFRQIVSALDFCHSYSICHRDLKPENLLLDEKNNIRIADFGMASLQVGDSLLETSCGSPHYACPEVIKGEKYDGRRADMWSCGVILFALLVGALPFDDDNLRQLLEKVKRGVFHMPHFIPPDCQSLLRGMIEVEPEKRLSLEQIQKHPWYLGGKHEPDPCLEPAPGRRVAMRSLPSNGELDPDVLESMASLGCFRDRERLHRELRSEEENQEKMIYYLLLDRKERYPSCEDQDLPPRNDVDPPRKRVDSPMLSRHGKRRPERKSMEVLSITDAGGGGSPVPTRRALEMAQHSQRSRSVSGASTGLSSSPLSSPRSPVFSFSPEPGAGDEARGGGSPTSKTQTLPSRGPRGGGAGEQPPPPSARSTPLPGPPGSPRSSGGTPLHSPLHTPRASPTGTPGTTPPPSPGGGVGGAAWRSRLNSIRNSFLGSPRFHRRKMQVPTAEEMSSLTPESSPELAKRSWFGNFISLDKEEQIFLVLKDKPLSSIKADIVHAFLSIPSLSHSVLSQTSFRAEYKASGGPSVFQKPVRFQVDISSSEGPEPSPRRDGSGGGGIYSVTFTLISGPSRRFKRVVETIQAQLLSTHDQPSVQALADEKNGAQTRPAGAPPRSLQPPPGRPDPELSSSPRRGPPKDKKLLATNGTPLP

[20] = molecular target: Serine/threonine-protein kinase Nek6 (Homo sapiens) (UniProt Q9HC98); settings: Compound concentration 1000.0 nM
[21] = molecular target: Activin receptor type-2A (Homo sapiens) (UniProt P27037); settings: Compound concentration 1000.0 nM
[22] = molecular target: Cyclin-dependent kinase 9 (Homo sapiens) (UniProt P50750); settings: Compound concentration 1000.0 nM
[23] = molecular target: Dual specificity protein kinase CLK4 (Homo sapiens) (UniProt Q9HAZ1); settings: Compound concentration 1000.0 nM
Sequence of Dual specificity protein kinase CLK4 (Homo sapiens) (Q9HAZ1 whole entry, looked up): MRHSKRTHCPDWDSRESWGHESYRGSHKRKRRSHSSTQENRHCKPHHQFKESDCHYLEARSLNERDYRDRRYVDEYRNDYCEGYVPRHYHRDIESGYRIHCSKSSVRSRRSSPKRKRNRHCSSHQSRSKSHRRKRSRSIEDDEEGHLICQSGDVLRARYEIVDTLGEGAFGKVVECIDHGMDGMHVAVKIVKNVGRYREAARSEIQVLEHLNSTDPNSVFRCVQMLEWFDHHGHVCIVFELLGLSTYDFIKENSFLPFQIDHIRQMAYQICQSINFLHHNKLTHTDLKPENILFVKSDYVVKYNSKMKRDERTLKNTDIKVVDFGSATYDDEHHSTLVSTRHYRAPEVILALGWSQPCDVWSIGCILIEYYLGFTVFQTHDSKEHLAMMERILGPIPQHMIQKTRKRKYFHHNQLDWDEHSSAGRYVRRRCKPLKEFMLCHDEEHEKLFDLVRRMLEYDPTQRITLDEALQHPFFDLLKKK

[24] = test system: Receptor-type tyrosine-protein kinase FLT3 (Homo sapiens), P36888 [UNDEFINED MUTATION]; settings: Compound concentration 1000.0 nM
[25] = molecular target: Ribosomal protein S6 kinase alpha-1 (Homo sapiens) (UniProt Q15418); settings: Compound concentration 1000.0 nM
[26] = test system: Receptor-type tyrosine-protein kinase FLT3 (Homo sapiens), P36888 [D835Y]; settings: Compound concentration 1000.0 nM
[27] = molecular target: 5'-AMP-activated protein kinase catalytic subunit alpha-1 (Homo sapiens) (UniProt Q13131); settings: Compound concentration 1000.0 nM
[28] = test system: Tyrosine-protein kinase ABL1 (Homo sapiens), P00519 [Q252H]; settings: Compound concentration 1000.0 nM
[29] = molecular target: T1, Muscarinic acetylcholine receptor M1 (Homo sapiens) (UniProt P11229); settings: Compound concentration 10.0 uM
T1 sequence (whole entry): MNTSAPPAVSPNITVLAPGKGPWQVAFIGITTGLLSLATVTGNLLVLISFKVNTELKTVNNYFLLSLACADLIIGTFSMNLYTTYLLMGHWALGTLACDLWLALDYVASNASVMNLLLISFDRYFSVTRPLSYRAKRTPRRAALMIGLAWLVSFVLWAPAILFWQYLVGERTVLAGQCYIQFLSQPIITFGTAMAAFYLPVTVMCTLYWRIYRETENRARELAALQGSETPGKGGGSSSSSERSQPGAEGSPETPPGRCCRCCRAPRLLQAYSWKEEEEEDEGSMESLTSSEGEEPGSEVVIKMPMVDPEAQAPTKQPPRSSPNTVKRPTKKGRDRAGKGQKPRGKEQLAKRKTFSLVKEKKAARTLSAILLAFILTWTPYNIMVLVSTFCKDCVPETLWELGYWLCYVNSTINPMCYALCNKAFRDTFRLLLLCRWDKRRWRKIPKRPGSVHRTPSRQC

[30] = molecular target: Ephrin type-A receptor 2 (Homo sapiens) (UniProt P29317); settings: Compound concentration 1000.0 nM
[31] = molecular target: Mitogen-activated protein kinase kinase kinase 5 (Homo sapiens) (UniProt Q99683); settings: Compound concentration 1000.0 nM
[32] = molecular target: Serine/threonine-protein kinase 32C (Homo sapiens) (UniProt Q86UX6); settings: Compound concentration 1000.0 nM
Sequence of Serine/threonine-protein kinase 32C (Homo sapiens) (Q86UX6 whole entry): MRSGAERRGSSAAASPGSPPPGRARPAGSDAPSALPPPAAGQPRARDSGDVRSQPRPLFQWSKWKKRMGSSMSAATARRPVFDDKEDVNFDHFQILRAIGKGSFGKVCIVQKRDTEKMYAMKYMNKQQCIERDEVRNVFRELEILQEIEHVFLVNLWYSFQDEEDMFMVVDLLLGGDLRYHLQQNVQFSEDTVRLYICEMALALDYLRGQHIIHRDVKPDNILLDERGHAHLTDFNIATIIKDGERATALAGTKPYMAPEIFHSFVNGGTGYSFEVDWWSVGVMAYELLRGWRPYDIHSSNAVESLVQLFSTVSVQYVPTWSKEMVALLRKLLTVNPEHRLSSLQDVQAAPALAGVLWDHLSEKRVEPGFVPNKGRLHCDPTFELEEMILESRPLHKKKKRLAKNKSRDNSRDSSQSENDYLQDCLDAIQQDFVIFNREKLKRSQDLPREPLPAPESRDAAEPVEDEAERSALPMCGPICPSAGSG

[33] = molecular target: Testis-specific serine/threonine-protein kinase 1 (Homo sapiens) (UniProt Q9BXA7); settings: Compound concentration 1000.0 nM
Sequence of Testis-specific serine/threonine-protein kinase 1 (Homo sapiens) (Q9BXA7 whole entry, canonical isoform): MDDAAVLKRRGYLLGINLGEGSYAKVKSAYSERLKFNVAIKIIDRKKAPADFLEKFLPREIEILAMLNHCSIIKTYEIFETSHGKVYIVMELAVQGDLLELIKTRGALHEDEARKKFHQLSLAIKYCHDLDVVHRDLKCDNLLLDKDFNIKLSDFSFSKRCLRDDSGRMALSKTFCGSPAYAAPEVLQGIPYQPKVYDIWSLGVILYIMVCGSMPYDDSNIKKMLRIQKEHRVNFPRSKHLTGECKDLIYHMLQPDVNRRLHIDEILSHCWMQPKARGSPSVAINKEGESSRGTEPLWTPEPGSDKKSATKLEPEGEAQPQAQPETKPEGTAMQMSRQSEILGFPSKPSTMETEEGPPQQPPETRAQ

[34] = test system: Phosphatidylinositol 4,5-bisphosphate 3-kinase catalytic subunit alpha isoform (Homo sapiens), P42336 [M1043I]; settings: Compound concentration 1000.0 nM
[35] = test system: Epidermal growth factor receptor (Homo sapiens), P00533 [UNDEFINED MUTATION]; settings: Compound concentration 1000.0 nM
[36] = test system: Phosphatidylinositol 4,5-bisphosphate 3-kinase catalytic subunit alpha isoform (Homo sapiens), P42336 [E542K]; settings: Compound concentration 1000.0 nM
[37] = test system: Leucine-rich repeat serine/threonine-protein kinase 2 (Homo sapiens), Q5S007 [G2019S]; settings: Compound concentration 1000.0 nM
[38] = molecular target: Testis-specific serine/threonine-protein kinase 3 (Homo sapiens) (UniProt Q96PN8); settings: Compound concentration 1000.0 nM

CC(=O)N1CCC(c2ccc(C(=O)NC3=NCCN3)cc2C(F)(F)F)CC1 [BI 0054]
inactive: residual activity [1] 100% | residual activity [2] 100% | residual activity [3] 100% | residual activity [4] 100% | residual activity [5] 100% | residual activity [6] 91% | residual activity [7] 100% | inhibition [8] 16.3% | residual activity [9] 100% | residual activity [10] 100% | residual activity [11] 100% | residual activity [12] 100% | residual activity [13] 100% | residual activity [14] 100% | residual activity [15] 100% | residual activity [16] 100% | residual activity [17] 100% | residual activity [18] 100% | residual activity [19] 100% | residual activity [20] 100% | residual activity [21] 100% | residual activity [22] 84% | residual activity [23] 100% | residual activity [24] 100% | residual activity [25] 100% | residual activity [26] 98% | residual activity [27] 100% | residual activity [28] 86% | inhibition [29] -7.86% | residual activity [30] 94% | residual activity [31] 100% | residual activity [32] 100% | residual activity [33] 100% | residual activity [34] 100% | residual activity [35] 100% | residual activity [36] 100% | residual activity [37] 100% | residual activity [38] 100%

CC(=O)N1CCC(c2ccc(C(=O)NC(=N)N)cc2C(F)(F)F)CC1 [BI 9627]
inactive: residual activity [1] 100% | residual activity [2] 100% | residual activity [3] 100% | residual activity [4] 100% | residual activity [5] 100% | residual activity [6] 100% | residual activity [7] 90% | inhibition [8] 9.12% | residual activity [9] 100% | residual activity [10] 100% | residual activity [11] 100% | residual activity [12] 100% | residual activity [13] 100% | residual activity [14] 85% | residual activity [15] 100% | residual activity [16] 100% | residual activity [17] 100% | residual activity [18] 100% | residual activity [19] 87% | residual activity [20] 100% | residual activity [21] 100% | residual activity [22] 100% | residual activity [23] 100% | residual activity [24] 91% | residual activity [25] 100% | residual activity [26] 100% | residual activity [27] 97% | residual activity [28] 100% | inhibition [29] 12.4% | residual activity [30] 100% | residual activity [31] 100% | residual activity [32] 100% | residual activity [33] 100% | residual activity [34] 100% | residual activity [35] 90% | residual activity [36] 82% | residual activity [37] 100% | residual activity [38] 100%
